# From patent publication US20260159528A1, “HETEROCYCLIC COMPOUNDS AS TRIGGERING RECEPTOR EXPRESSED ON MYELOID CELLS 2 AGONISTS AND METHODS OF USE” (Vigil Neuroscience, Inc., priority 2021, published 2026)
# Molecular target: T1, human TREM2 (Homo sapiens, UniProt Q9NZC2)
# T1 construct: expressed in transfected cells; host or cells: HEK293T
# Test: TREM2 agonist potency by cellular Syk phosphorylation (AlphaLisa) in HEK293T-hTREM2 cells
# Assay type: cell-based
# Conditions: Table D-2; HEK293 cells expressing human TREM2 and DAP12; pSyk AlphaLisa
# Method: In vitro Measurement of Triggering Receptor Expressed on Myeloid Cells 2 activity using cellular phosphorylation of Spleen Tyrosine Kinase (“Syk”) Assays
# Measurement of TREM2 agonist potency was done using a HEK cell line expressing human TREM2 and DAP12 (HEK293T-hTREM2 cells). Binding of small molecules to, and activation of, TREM2 increases the phosphorylation of Syk. The resultant levels of Syk phosphorylation are measured using a commercial AlphaLisa reagent kit. To perform the assay, HEK-hTREM2 cells were plated at 14,000 cells per well in a 384 well plate, in 25 µL of complete growth media and incubated at 37° C., 5% CO2 for 20-24 hours.
# Prior to the assay, test compounds were diluted in the 384 well plates in assay buffer and allowed to equilibrate for 30 minutes. Growth media was removed from cell plates by inversion on blotting paper, and 25 μL of test articles in assay buffer was added to cells. Cells were incubated for 45 minutes at room temperature. After 45 minutes, assay buffer was removed and 10 μL of lysis buffer was added. Plates were shaken for 20 minutes at 350 RPM at room temperature. After complete lysis, AlphaLisa reagents were added to the lysate, and fluorescence intensity was measured using a Perkin Elmer Envision plate reader. Intensities were used to generate a standard curve, and % activation was calculated. Curve fitting was performed using Prism v9 software, log(agonist) vs response—variable slope (four parameters), and EC50s were calculated from the curve fit.
# The results presented in Table D have been generated with the in vitro assay described above. This assay may be used to test any of the compounds described herein to assess and characterize a compound's ability to act as an agonist of TREM2.
# T1 sequence (Q9NZC2 19-230): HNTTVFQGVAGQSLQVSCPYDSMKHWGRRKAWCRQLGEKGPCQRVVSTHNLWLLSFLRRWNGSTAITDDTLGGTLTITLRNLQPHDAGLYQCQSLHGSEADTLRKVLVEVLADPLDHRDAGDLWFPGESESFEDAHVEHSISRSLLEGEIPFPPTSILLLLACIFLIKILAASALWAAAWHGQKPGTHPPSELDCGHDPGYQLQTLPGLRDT
# T1 sequence (O43914 22-113 partner): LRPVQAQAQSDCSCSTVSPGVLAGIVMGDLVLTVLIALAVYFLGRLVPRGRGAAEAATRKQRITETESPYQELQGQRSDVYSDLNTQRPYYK
row,SMILES,EC50
1,"COCn1cc([C@H]2CN(c3nc(-c4ccc(C(F)(F)F)cc4F)c4sc(N(C)C)nc4n3)C[C@@H](C)O2)cn1 [Compound I-149, 7-[2-fluoro-4-(trifluoromethyl)phenyl]-5-[(2S,6R)-2-[1-(methoxymethyl)pyrazol-4-yl]-6-methyl-morpholin-4-yl]-N,N-dimethyl-thiazolo[4,5-d]pyrimidin-2-amine]",50 to 500 nM
2,"CCn1/c(=N\C)sc2c(-c3ccc(Cl)cc3F)nc(N3C[C@@H](C)O[C@@H](c4cnn(C5CC5)c4)C3)nc21 [Compound I-154, (E)-7-(4-chloro-2-fluoro-phenyl)-3-ethyl-N-methyl-5-[(2S,6R)-2-(1-cyclopropylpyrazol-4-yl)-6-methyl-morpholin-4-yl]thiazolo[4,5-d]pyrimidin-2-imine]",500 to 3000 nM
3,"C/N=c1/sc2c(-c3ccc(Cl)cc3F)nc(N3C[C@@H](C)O[C@@H](c4cnn(C5CC5)c4)C3)nc2n1CCF [Compound I-159, (E)-7-(4-chloro-2-fluoro-phenyl)-3-(2-fluoroethyl)-N-methyl-5-[(2S,6R)-2-(1-cyclopropylpyrazol-4-yl)-6-methyl-morpholin-4-yl]thiazolo[4,5-d]pyrimidin-2-imine]",500 to 3000 nM
4,"CO[C@@H]1CCN(c2nc3nc([C@H]4CCO[C@@H](c5cnn(C6CC6)c5)C4)nc(-c4ccc(C(F)(F)F)cc4F)c3s2)C1 [Compound I-164, 5-((2R,4S)-2-(1-cyclopropyl-1H-pyrazol-4-yl)tetrahydro-2H-pyran-4-yl)-7-(2-fluoro-4-(trifluoromethyl)phenyl)-2-((R)-3-methoxypyrrolidin-1-yl)thiazolo[4,5-d]pyrimidine]",50 to 500 nM
5,"CO[C@H]1CCN(c2nc3nc([C@H]4CCO[C@@H](c5cnn(C6CC6)c5)C4)nc(-c4ccc(C(F)(F)F)cc4F)c3s2)C1 [Compound I-165, 5-[(2R)-2-(1-cyclopropylpyrazol-4-yl)tetrahydropyran-4-yl]-7-[2-fluoro-4-(trifluoromethyl)phenyl]-2-[(3S)-3-methoxypyrrolidin-1-yl]thiazolo[4,5-d]pyrimidine]",50 to 500 nM
6,"C[C@@H]1CN(c2nc(-c3ccc(F)cc3F)c3c(n2)nc(N2CCC2)n3C)C[C@H](c2cnn(C3CC3)c2)O1 [Compound I-191, (2S,6R)-4-(8-(azetidin-1-yl)-6-(2,4-difluorophenyl)-7-methyl-7H-purin-2-yl)-2-(1-cyclopropyl-1H-pyrazol-4-yl)-6-methylmorpholine]",50 to 500 nM
7,"CN(C)c1nc2nc(C3CCO[C@@H](c4cnn(C5CC5)c4)C3)nc(Oc3ccccc3)c2s1 (stereo partly drawn) [Compound I-210, 5-[(2R)-2-(1-cyclopropylpyrazol-4-yl)tetrahydropyran-4-yl]-N,N-dimethyl-7-phenoxy-thiazolo[4,5-d]pyrimidin-2-amine]",500 to 3000 nM
8,"CO[C@@H]1CCN(c2nc3nc(N4C[C@@H](C)O[C@@H](c5cnn(C6CC6)c5)C4)nc(-c4ccc(F)cc4F)c3s2)C1 [Compound I-221, (2S,6R)-2-(1-cyclopropyl-1H-pyrazol-4-yl)-4-(7-(2,4-difluorophenyl)-2-((R)-3-methoxypyrrolidin-1-yl)thiazolo[4,5-d]pyrimidin-5-yl)-6-methylmorpholine]",≤ 50 nM
9,"CO[C@H]1CCN(c2nc3nc(N4C[C@@H](C)O[C@@H](c5cnn(C6CC6)c5)C4)nc(-c4ccc(F)cc4F)c3s2)C1 [Compound I-224, (2S,6R)-2-(1-cyclopropylpyrazol-4-yl)-4-[7-(2,4-difluorophenyl)-2-[(3S)-3-methoxypyrrolidin-1-yl]thiazolo[4,5-d]pyrimidin-5-yl]-6-methyl-morpholine]",≤ 50 nM
10,"COCn1cc([C@H]2CN(c3nc(-c4ccc(F)cc4F)c4sc(N(C)C)nc4n3)C[C@@H](C)O2)cn1 [Compound I-230, 7-(2,4-difluorophenyl)-5-[(2S,6R)-2-[1-(methoxymethyl)pyrazol-4-yl]-6-methyl-morpholin-4-yl]-N,N-dimethyl-thiazolo[4,5-d]pyrimidin-2-amine]",≤ 50 nM
11,"C[C@@H]1CN(c2nc(-c3ccc(F)cc3F)c3sc(N(C)C)nc3n2)C[C@H](c2cnn(C(F)F)c2)O1 [Compound I-235, 5-((2S,6R)-2-(1-(difluoromethyl)-1H-pyrazol-4-yl)-6-methylmorpholino)-7-(2,4-difluorophenyl)-N,N-dimethylthiazolo[4,5-d]pyrimidin-2-amine]",≤ 50 nM
12,"C[C@@H]1CN(c2nc(-c3c(F)cc(F)cc3F)c3sc(N(C)C)nc3n2)C[C@H](c2cnn(C3CC3)c2)O1 [Compound I-240, 5-[(2S,6R)-2-(1-cyclopropylpyrazol-4-yl)-6-methyl-morpholin-4-yl]-N,N-dimethyl-7-(2,4,6-trifluorophenyl)thiazolo[4,5-d]pyrimidin-2-amine]",≤ 50 nM
13,"CN(C)c1nc2nc(N3CCC(F)(F)C(c4cnn(C5CC5)c4)C3)nc(-c3ccc(F)cc3F)c2s1 (stereo not shown) [Compound I-245, 5-(3-(1-cyclopropyl-1H-pyrazol-4-yl)-4,4-difluoropiperidin-1-yl)-7-(2,4-difluorophenyl)-N,N-dimethylthiazolo[4,5-d]pyrimidin-2-amine]",≤ 50 nM
14,"CS(=O)(=O)c1nc2nc([C@H]3CCO[C@@H](c4cnn(C5CC5)c4)C3)nc(-c3ccc(C(F)(F)F)cc3N3CCC3)c2s1 [Compound I-253, 7-[2-(azetidin-1-yl)-4-(trifluoromethyl)phenyl]-5-[(2R,4S)-2-(1-cyclopropylpyrazol-4-yl)tetrahydropyran-4-yl]-2-methylsulfonyl-thiazolo[4,5-d]pyrimidine]",50 to 500 nM
15,"C[C@@H]1CN(c2nc(-c3ccc(C(F)(F)F)cc3F)c3sc(N(C)C)nc3n2)C[C@H](c2cnn(C3CC3)c2)O1 [Compound I-258, 5-[(2S,6R)-2-(1-cyclopropylpyrazol-4-yl)-6-methyl-morpholin-4-yl]-7-[2-fluoro-4-(trifluoromethyl)phenyl]-N,N-dimethyl-thiazolo[4,5-d]pyrimidin-2-amine]",≤ 50 nM
16,"Cc1cc([C@H]2CN(c3nc(-c4ccc(C(F)(F)F)cc4F)c4sc(N(C)C)nc4n3)C[C@@H](C)O2)ccn1 [Compound I-263, 7-[2-fluoro-4-(trifluoromethyl)phenyl]-N,N-dimethyl-5-[(2R,6S)-2-methyl-6-(2-methyl-4-pyridyl)morpholin-4-yl]thiazolo[4,5-d]pyrimidin-2-amine]",50 to 500 nM
17,"Cc1cc([C@H]2C[C@@H](c3nc(-c4ccc(F)cc4F)c4sc(N(C)C)nc4n3)CCO2)ccn1 [Compound I-268, 7-(2,4-difluorophenyl)-N,N-dimethyl-5-[(2R,4S)-2-(2-methyl-4-pyridyl)tetrahydropyran-4-yl]thiazolo[4,5-d]pyrimidin-2-amine]",50 to 500 nM
18,"Cc1cc([C@H]2C[C@H](c3nc(-c4ccc(F)cc4F)c4sc(N(C)C)nc4n3)CCO2)ccn1 [Compound I-269, 7-(2,4-difluorophenyl)-N,N-dimethyl-5-[(2R,4R)-2-(2-methyl-4-pyridyl)tetrahydropyran-4-yl]thiazolo[4,5-d]pyrimidin-2-amine]",50 to 500 nM
19,"C[C@@H]1CN(c2nc(-c3cc(F)c(F)cc3F)c3sc(N(C)C)nc3n2)C[C@H](c2cnn(C3CC3)c2)O1 [Compound I-273, 5-[(2S,6R)-2-(1-cyclopropylpyrazol-4-yl)-6-methyl-morpholin-4-yl]-N,N-dimethyl-7-(2,4,5-trifluorophenyl)thiazolo[4,5-d]pyrimidin-2-amine]",≤ 50 nM
